# Key:
# [1] = system: TSP-1 binding to VEGF; assay: Co-immunoprecipitation TSP-1 with VEGF; assay type: cell-based, human; conditions: HUVECs, 100 μM; conditioned media
# Description: (§1) Protein lysates prepared in ice-cold lysis buffer or conditioned media were subjected to immunoprecipitation assay using the Pierce Co-IP kit (Thermo Fisher Scientific) according to the manufacturer's protocol. 10 μg of antibody (anti CD47, anti-CD36, anti-FGF2, anti-VEGF, anti-β1 integrin and anti-LRP1 heavy chain) or non-specific IgGs were incubated with the delivered resin and covalently coupled. The antibody-coupled resin was incubated with whole HUVEC protein lysate overnight at 4°C under gentle agitation (no cross-linker was used to stabilize protein complexes before HUVEC lysis). Then the resin was washed and the protein complexes bound to the antibody were eluted. Immunoprecipitated protein complexes were solubilized under denaturing and reducing conditions, heated to 100°C for 5 min and analyzed by immunoblotting as described above. […]
# (§2) receptors. HUVECs were treated with TAX2 (100 μM) or scrambled peptide (Ctrl, 100 μM). FGF-2 and VEGF were immunoprecipitated from conditioned media using anti-FGF-2 (clone C-18) and anti-VEGF (clone C-1), respectively. β1 integrin and LRP-1 were immunoprecipitated from total protein lysates using anti-β1 integrin (clone BV7) and anti-LRP-1 heavy chain (clone 8G1), respectively. […] Histogram represents the quantification of relative ligand-bound TSP-1 under TAX2 treatment as compared to control. […]
# [2] = system: VEGFR2; assay: VEGF-induced VEGFR2 phosphorylation; assay type: cell-based, human; conditions: HUVECs, 100 μM for 12 h, then 30 ng/mL VEGF 5 min; n = 3
# [3] = system: TSP-1 binding to β1 integrin; assay: Co-immunoprecipitation TSP-1 with β1 integrin; assay type: cell-based, human; conditions: HUVECs, 100 μM; total protein lysates
# Description: as §1, §2
# [4] = system: TSP-1; assay: Surface plasmon resonance; assay type: binding; conditions: data not shown
# [5] = system: HUVECs; assay: Wound-healing migration assay; assay type: cell-based, human; conditions: 100 μM, 9 h, after mitomycin C, mean of 3 in quadruplicate
# Description: Figure 2 TAX2 peptide impairs endothelial cell migration and inhibits angiogenesis in vitro and ex vivo A. HUVECs were treated with TAX2 (100 μM) or scrambled peptide (Ctrl, 100 μM). CD47 was immunoprecipitated from total protein lysates using anti-CD47 (clone B6H12) and non-specific IgGs were used as a negative control. Immunocomplexes were then submitted to SDS-PAGE and immunoblotted (IB) using specific TSP-1 and CD47 antibodies. Histogram represents the quantification of co-immunoprecipitated TSP-1 relative to immunoprecipitated CD47. Results are expressed as percentage compared to control (n = 3 separate experiments, t test). B. HUVECs (1 × 10^5 per well) were grown at confluence and then cell proliferation was inhibited by incubating with 10 μg/mL mitomycin C for 2 h. […] Graph represents the quantification of the wounded area. […] Hoechst-stained migrating cells attached on outside surface of the top chamber were photographed (20× objective) and counted. Results are expressed as percentage of migrated cells as compared to control. […] After 8 h incubation, HUVEC tube-like formation was observed on an inverted microscope (40×) and quantification of network total length was done using ImageJ software. […] Data are expressed as the mean ± SE from at least 3 independent experiments, each performed in triplicate. […] The transcriptional level of TSP-1 was assessed by RT-PCR and normalized to β-actin. […]
# [6] = system: BALB/C nu/nu mice; assay: Tolerability in xenograft-bearing mice; assay type: in vivo, mouse
# Description: For the subcutaneous melanoma tumor model, suspensions of B16F1 cells (2.5 × 10^5 cells in 100 μL RPMI-1640 medium) were subcutaneously injected into the left flank of different randomized series of syngeneic C57BL/6 mice (n = 8–10 per group), as previously described. Intraperitoneal administrations of peptide (10 mg/kg mouse weight) or controls (physiological serum 0.9% (w/v) NaCl or a scrambled peptide) were performed at days 3, 5 and 7. In human pancreatic carcinoma xenograft experiments, 3 × 10^6 MIA PaCa-2 cells/mouse were implanted subcutaneously into the left flank of BALB/C athymic nude mice, then TAX2 intraperitoneal treatments (10 mg/kg mouse weight) were performed 3 times a week during 4 weeks starting at day 10 after tumor cells inoculation. Tumor volume was determined according to v = 0.5 A × B^2, where A denotes the largest dimension of the tumor and B represents the smallest dimension. At days indicated, mice were sacrificed and tumors were surgically extracted and fixed in 4% paraformaldehyde for further morphologic studies and for magnetic resonance imaging, or frozen for immunohistochemistry. Mice were also weighed every 2–3 days and daily checked for any modification in their behavior. […]
sequence,measurement,setting,value
"CEVSQLLKGDAC (disulfide) [TAX2, CD47-derived cyclic disulfide dodecapeptide …]",TSP-1 binding to VEGF,[1],does not affect
same,VEGF-induced VEGFR2 phosphorylation,[2],partially reverses VEGF-induced VEGFR2 phosphorylation
same,TSP-1 binding to β1 integrin,[3],does not affect
same,binding to TSP-1 by surface plasmon resonance,[4],confirmed
same,endothelial cell migration rate (wound healing),[5],reduced migration rate
same,clinical sign or weight loss,[6]; 10 mg/kg i.p. 3 times a week for 4 weeks,mice did not exhibit any other clinical sign or weight loss
same,"thrombosis, hemorrhage or embolism in xenograft-bearing mice","[6]; healthy organs, human pancreatic carcinoma model","no signs of thrombosis, hemorrhage or embolism were observed in healthy organs"

# — PMC4627230, “Identification of TAX2 peptide as a new unpredicted anti-cancer agent” (Oncotarget, 2015)
